Measurements published in patent EP0429333B1, “Process for producing oxazopyrroloquinolines, novel oxazopyrroloquinolines, and use of oxazopyrroloquinolines” (priority 1989, dated 1991).

Tests used:
male SPF-ICR mice = experiment: in vivo; conditions: mouse, in vivo
Protocol: (1) Acute toxicity test: • (i) To male SPF-ICR mice of 5 weeks old (supplied by Charles River Co.) were intraperitoneally administered PQQ·2Na and OPQs in the dosages of 20, 40, 80, 160 and 200 mg/kg body weight of mouse, respectively and they were bred at 25°C for 14 days. OPQ, 1-methylpropyl OPQ, 2-methylthioethyl OPQ, and benzyl OPQ were used as the OPQs. One group consisted of 8 mice. […] One group consisted of 8 mice. […] They were bred at 25°C for 14 days. One group consisted of eight mice. […] (2) Toxicity to kidney (i) Toxicity to kidney determined by urine examination: In the same manner as in the acute toxicity test, PQQ·2Na and OPQs were respectively intraperitoneally administered to mice and these mice were bred. Urine was collected every day and concentration of glucose in urine was obtained using Uristex II (manufactured by Miles·Sankyo Co.). […]

[1] = test system: carbon tetrachloride (CCl4)-induced liver diseases; experiment: Pharmacological activity on carbon tetrachloride-induced liver diseases; type: in vivo, SD rats; conditions: 5mg/kg rat twice, CCl4 1 ml/kg rat; for Total bilirubin: Table 27: CCl4 only 1.2, no administration 0.5; for GPT: Table 27: CCl4 only 818, no administration 16; for GOT: Table 27: CCl4 only 3308, no administration 144
[2] = Solubility of the isolated compound, described in words; type: physicochemical; conditions: for solubility in water / solubility under neutral and alkaline conditions: water
kidney = experiment: Toxicity to kidney determined by blood examination; type: in vivo, mice; conditions: serum; for Creatinine: Table 2, no administration 0.8; for Urea nitrogen: Table 2, no administration 24; for Glucose: Table 2, no administration 78
Protocol: After one day from administration, the mice were fasted (only water was given) and after lapse of 18 hours, blood was collected and serum was obtained therefrom. Glucose, urea nitrogen and creatinine in the serum were examined using FUJI Dry Chemslide (manufactured by Fuji Photo Film Co., Ltd.). […]
Thereafter, the mice were fasted (with giving only water) and after lapse of 18 hours, blood was collected and serum was obtained therefrom. Contents of glucose, urea nitrogen and creatinine in serum were obtained using FUJI Dry Chemslide. The results were shown by average value for eight mice.

[3] = biological target: aldose reductase of kidney (Canis lupus familiaris, UniProt A0A8I3P2L6); experiment: Inhibitory effect on aldose reductase of kidney; type: biochemical, dog; conditions: read-out: Degree of inhibition for aldose reductase (%); for inhibition at 1 µM: concentration 1x10^-6 M; for inhibition at 2 µM: concentration 2x10^-6 M; for inhibition at 5 µM: concentration 5x10^-6 M
Protocol: Medulla of kidney of dog was homogenized with 10mM phosphoric acid buffer (pH 7.0) containing 2mM dithiothreitol in an amount of four times the volume of kidney medulla and subjected to centrifugation. The supernatant liquid was purified by affinity chromatography, gel filtration and chromatofocusing to obtain electrophoretically homogeneous aldose reductase. 0.05 ml of 3mM NADPH, 0.1 ml of DL-glyceraldehyde and 0.04 ml of distilled water were added to 0.8 ml of 0.1M phosphoric acid buffer (pH 6.2) and left to stand at 25°C for 3 minutes. Then, 0.01 ml of the aldose reductase solution was added thereto to start reaction and decreasing of absorbance of 340 nm was measured at 25°C with time. Amount of enzyme which consumes 1 µmole of NADPH for 1 minute was taken as 1 unit.

[4] = 40 mg/kg mouse intraperitoneally
[5] = 80 mg/kg mouse intraperitoneally
[6] = 160 mg/kg mouse intraperitoneally
[7] = 200 mg/kg mouse intraperitoneally

SMILES | death of mice (male SPF-ICR mice) | Total bilirubin [1] [mg/dL] | GPT [1] [U/l] | GOT [1] [U/l] | solubility in acetone and diethyl ether [2] | solubility in lower alcohols [2] | solubility in water [2] | solubility under neutral and alkaline conditions [2] | Creatinine (kidney; [4]) [mg/dL] | Urea nitrogen (kidney; [4]) [mg/dL] | Glucose (kidney; [4]) [mg/dL] | Creatinine (kidney; [5]) [mg/dL] | Urea nitrogen (kidney; [5]) [mg/dL] | Glucose (kidney; [5]) [mg/dL] | Creatinine (kidney; [6]) [mg/dL] | Urea nitrogen (kidney; [6]) [mg/dL] | Glucose (kidney; [6]) [mg/dL] | Creatinine (kidney; [7]) [mg/dL] | Urea nitrogen (kidney; [7]) [mg/dL] | Glucose (kidney; [7]) [mg/dL] | also measured
O=C(O)c1cc(C(=O)O)c2c(n1)c1nc(Cc3ccccc3)oc1c1cc(C(=O)O)[nH]c12 [Benzyl OPQ, 5-Benzyl-2,8,10-tricarboxy-1H-oxazo[5,4-h]-pyrrolo-[2,3-f]-quinoline] | no mice died | 0.7 | 233 | 993 | did not dissolve | dissolved | easily soluble | especially soluble | 0.7 | 23 | 90 | 0.7 | 23 | 87 | 0.7 | 26 | 87 | 0.7 | 25 | 84 | inhibition at 1 µM [3]: 35.7%; inhibition at 2 µM [3]: 46.4%; inhibition at 5 µM [3]: 63.3%
CSCCc1nc2c3nc(C(=O)O)cc(C(=O)O)c3c3[nH]c(C(=O)O)cc3c2o1 [2-Methylthioethyl OPQ, 5-(2-Methylthioethyl)-2,8,10-tricarboxy-1H-oxazo-[5,4-h]-pyrrolo[2,3-f]quinoline] | no mice died | 0.7 | 157 | 693 | did not dissolve | dissolved | easily soluble | especially soluble | 0.8 | 26 | 96 | 0.7 | 26 | 88 | 0.6 | 26 | 97 | 0.7 | 26 | 72 | inhibition at 10 µM ([3]; concentration 1x10^-5 M): 83%; inhibition at 1 µM [3]: 42%; inhibition at 2 µM [3]: 54.9%; inhibition at 5 µM [3]: 81.8%; inhibition at 0.5 µM ([3]; concentration 5x10^-7 M): 24.3%
